The values below come from patent US11814405B2, “Pyridine sulfonamide phosphate compound, preparation method therefor, and use thereof” (Shanghai Xunhe Pharmaceutical Technology Co. Ltd., priority 2019, dated 2023).

Each structure is given as a SMILES string. Entries after “also recorded” stand apart in the source; their conditions may differ.

For series [1] the following is noted: active metabolite in vivo, compared with torsemide (Drugs 41 (1): 81-103, 1991); cited from earlier work.
The conditions of series [2]: cited from earlier work.
Series [3] in a line: Comparison of water solubility. The following applies: for Phenomenon: at the API:water ratio given.
A further series relates to Male SD rats. The series can be described thus: Comparison of diuretic effects: urine output in saline-loaded rats. The series is classed as in vivo, rat. Particulars: 10 mg/kg, ig, after 30 mL/kg normal saline, urine collected for 4 h. Here is the method: Male SD rats (body weight: 180±20 g) were randomly divided into 14 groups with 3 rats in each group. Each rat was administrated 30 mL/kg normal saline through intragastric administration. After intragastric administration of normal saline, except the blank control group, each group was administrated one drug (10 mg/kg, ig, 1 mg/mL, formulation prescription: normal saline dissolution). Urination for 4 h was collected.

For `Cc1cc(Nc2ccncc2S(=O)(=O)NC(=O)NC(C)C)ccc1O` [Compound M3], the pharmacological activity result in series [1] was “comparable to torsemide”. For the same compound, the solubility in water entry in series [2] is given as “has not been effectively improved”. In addition, in series [3], the Phenomenon result was “Completely dissolved” and the “Conclusion (water solubility)” value is on record as “Slightly soluble”. Besides, the Urine output in the series with Male SD rats stood at 107.2 mL/kg.

As to `Cc1cccc(Nc2ccncc2S(=O)(=O)NC(=O)NC(C)C)c1` [Torsemide, 1-[4-(3-methylphenyl)aminopyridin-3-yl]sulfonyl-3-isopropylurea], the “solubility in 0.1 mol/L sodium hydroxide solution” value in series [2] (0.1 mol/L sodium hydroxide solution) is recorded as “slightly soluble”. Moreover, the solubility in water entry in series [2] was “almost insoluble in water; also recorded: very slightly soluble in water”. For the same compound, in series [3], the Phenomenon entry is reported as “Completely dissolved” and the “Conclusion (water solubility)” value is on record as “Very slightly”. In the series with Male SD rats, this compound showed a Urine output of 105.3 mL/kg.
